# Measurements from EP0059645A1, “Method and kit for identification of beta-lactamases” (NATIONAL RESEARCH DEVELOPMENT CORPORATION, priority 1981, dated 1982).
# Marks after values point to notes of the source that are not given here.
# Columns and labels:
# PSE-3 [1] = assay: Competitive assay with nitrocefin (RSAI); type: biochemical, Ps.aerug. 1920E
# OXA-1 [2] = biological target: T1, OXA-1 (Escherichia coli, UniProt P13661); assay: 6-well visual test with nitrocefin; settings: 3 minutes, room temperature
# PSE-2 = PSE-2 (Pseudomonas aeruginosa, UniProt P14489); assay: 6-well visual test with nitrocefin; settings: 3 minutes, room temperature
# [3] = biological target: T2, Chromosomal, induced beta-lactamase enzyme (Pseudomonas aeruginosa, UniProt P24735); assay: Competitive assay with nitrocefin (RSAI); type: biochemical, Ps.aerug. 1937E + ampicillin
# T2 construct: Normally, therefore, the beta-lactamase has to be extracted from the cells for the purpose of the present invention; endogenous in cells; host or cells: Pseudomonas aeruginosa 1937E grown with ampicillin
# SHV-1 = SHV-1 (Escherichia coli, UniProt P0AD63); assay: Competitive assay with nitrocefin (RSAI); type: biochemical, E. coli 2008E; design: the beta-lactamase has to be extracted from the cells for the purpose of the present invention; made in house; host or cells: E. coli 2008E (crude cell extract)
# HMS-1 [4] = assay: 6-well visual test with nitrocefin; settings: 3 minutes, room temperature
# OXA-2 [5] = biological target: T3, OXA-2 (Escherichia coli, UniProt P0A1V9); assay: Competitive assay with nitrocefin (RSAI); type: biochemical, E. coli R46; design: the beta-lactamase has to be extracted from the cells for the purpose of the present invention; made in house; host or cells: E. coli carrying R46 according to the earlier reading (crude cell extract)
# TEM-2 [6] = biological target: T4, TEM-2 (Escherichia coli, UniProt P62593, Q37K); assay: Competitive assay with nitrocefin (RSAI); type: biochemical, E. coli 1725E
# OXA-3 = OXA-3 (Pseudomonas aeruginosa, UniProt Q51429); assay: 6-well visual test with nitrocefin; settings: 3 minutes, room temperature
# K10317 = assay: Competitive assay with nitrocefin (RSAI); type: biochemical, K.aerog. 10317
# E. cloacae = E. cloacae (Enterobacter cloacae, UniProt P05364); assay: 6-well visual test with nitrocefin; settings: 3 minutes, room temperature
# PSE-4 = PSE-4 (Pseudomonas aeruginosa, UniProt P16897); assay: Competitive assay with nitrocefin (RSAI); type: biochemical, Ps.aerug. 1559E; design: Normally, therefore, the beta-lactamase has to be extracted from the cells for the purpose of the present invention; endogenous in cells
# K1073 = assay: Competitive assay with nitrocefin (RSAI); type: biochemical, Klebsiella 1073
# PSE-3 [7] = assay: 6-well visual test with nitrocefin; settings: 3 minutes, room temperature
# K17 = assay: Competitive assay with nitrocefin (RSAI); type: biochemical, Klebsiella 17
# TEM-2 [8] = biological target: T4, TEM-2; assay: 6-well visual test with nitrocefin; settings: 3 minutes, room temperature
# [9] = system: "unknown" (unidentified) beta-lactamase; assay: Competitive assay with nitrocefin (RSAI) on an unidentified beta-lactamase; settings: extract by the method of Example 6, assay as in Example 1; * = showed irreversible inhibition
# OXA-2 [10] = biological target: T3, OXA-2; assay: 6-well visual test with nitrocefin; settings: 3 minutes, room temperature
# Ps +AMP (Chromosomal) = Ps +AMP (Chromosomal) (Pseudomonas aeruginosa, UniProt P24735); assay: 6-well visual test with nitrocefin; settings: 3 minutes, room temperature
# [11] = biological target: Chromosomal, hyper-induced beta-lactamase enzyme (Escherichia coli, UniProt P00811); assay: Competitive assay with nitrocefin (RSAI); type: biochemical, E. coli SNU35; design: Normally, therefore, the beta-lactamase has to be extracted from the cells for the purpose of the present invention; endogenous in cells; host or cells: E. coli SNU 35 (artificially produced strain)
# TEM-2 beta-lactamase = TEM-2 beta-lactamase (Escherichia coli, UniProt P62593, Q37K); type: biochemical, E. coli C9 RP4; settings: from kinetics of nitrocefin cleavage
# OXA-1 [12] = biological target: T1, OXA-1; assay: Competitive assay with nitrocefin (RSAI); type: biochemical, E. coli 1527E; design: the beta-lactamase has to be extracted from the cells for the purpose of the present invention; made in house; host or cells: E. coli 1527E according to the earlier reading (crude cell extract)
# TEM-1 = TEM-1 (Escherichia coli, UniProt P62593); assay: 6-well visual test with nitrocefin; settings: 3 minutes, room temperature
# HMS-1 [13] = assay: Competitive assay with nitrocefin (RSAI); type: biochemical, E. coli 1946
# [14] = well A: Cefoxitin 20:1 to nitrocefin
# [15] = well E: Cefoxitin 200:1 to nitrocefin
compound,measurement,setting,value
"CO[C@@]1(NC(=O)Cc2cccs2)C(=O)N2C(C(=O)O)=C(COC(N)=O)CS[C@@H]21 [Cefoxi-tin, cefoxitin]",RSAI,PSE-3 [1],11.4
same,Score in 6-well visual test,OXA-1 [2]; [14],++
same,Score in 6-well visual test,OXA-1 [2]; [15],-
same,Score in 6-well visual test,PSE-2; [14],+
same,Score in 6-well visual test,PSE-2; [15],-
same,RSAI,[3],0.003
same,RSAI,SHV-1,600
same,Score in 6-well visual test,HMS-1 [4]; [14],++
same,Score in 6-well visual test,HMS-1 [4]; [15],-
same,RSAI,OXA-2 [5],0.2
same,RSAI,TEM-2 [6],60*
same,Score in 6-well visual test,OXA-3; [14],-
same,Score in 6-well visual test,OXA-3; [15],-
same,RSAI,K10317,350*
same,Score in 6-well visual test,E. cloacae; [14],-
same,Score in 6-well visual test,E. cloacae; [15],-
same,RSAI,PSE-4,27
same,RSAI,K1073,1020
same,Score in 6-well visual test,PSE-3 [7]; [14],+
same,Score in 6-well visual test,PSE-3 [7]; [15],-
same,RSAI,K17,1.6
same,Score in 6-well visual test,TEM-2 [8]; [14],++
same,Score in 6-well visual test,TEM-2 [8]; [15],-
same,RSAI,[9],0.008
same,Score in 6-well visual test,OXA-2 [10]; [14],-
same,Score in 6-well visual test,OXA-2 [10]; [15],-
same,Score in 6-well visual test,Ps +AMP (Chromosomal); [14],-
same,Score in 6-well visual test,Ps +AMP (Chromosomal); [15],-
same,RSAI,[11],0.0008
same,nature of the binding to the enzyme,TEM-2 beta-lactamase,irreversible binding
same,RSAI,OXA-1 [12],20
same,Score in 6-well visual test,TEM-1; [14],++
same,Score in 6-well visual test,TEM-1; [15],-
same,RSAI,HMS-1 [13],60
